In general, IC50 refers to the midpoint of a concentration-inhibition curve.

Molecules are shown by their SMILES. Active and inactive are the calls of the source.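 How the source made its calls: active means mean IC50 below 20 µM in each of the two panels, so potent in both; inactive means the rest.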

This passage reports IC50 results from PubChem BioAssay AID651650 (Sanford-Burnham Center for Chemical Genomics, 2012).

For this assay, the target named is Neuropilin-1 (Homo sapiens) (UniProt O14786). Nature of the assay: blockers of CendR peptide binding to NRP-1 – biochemical, FP and AlphaScreen panel, dose response (AID 651650). The note with it: NRP-1 b1b2 / RPARPAR peptide binding, FP or AlphaScreen.
Neuropilin-1 (Homo sapiens), sequence (O14786 whole entry, looked up): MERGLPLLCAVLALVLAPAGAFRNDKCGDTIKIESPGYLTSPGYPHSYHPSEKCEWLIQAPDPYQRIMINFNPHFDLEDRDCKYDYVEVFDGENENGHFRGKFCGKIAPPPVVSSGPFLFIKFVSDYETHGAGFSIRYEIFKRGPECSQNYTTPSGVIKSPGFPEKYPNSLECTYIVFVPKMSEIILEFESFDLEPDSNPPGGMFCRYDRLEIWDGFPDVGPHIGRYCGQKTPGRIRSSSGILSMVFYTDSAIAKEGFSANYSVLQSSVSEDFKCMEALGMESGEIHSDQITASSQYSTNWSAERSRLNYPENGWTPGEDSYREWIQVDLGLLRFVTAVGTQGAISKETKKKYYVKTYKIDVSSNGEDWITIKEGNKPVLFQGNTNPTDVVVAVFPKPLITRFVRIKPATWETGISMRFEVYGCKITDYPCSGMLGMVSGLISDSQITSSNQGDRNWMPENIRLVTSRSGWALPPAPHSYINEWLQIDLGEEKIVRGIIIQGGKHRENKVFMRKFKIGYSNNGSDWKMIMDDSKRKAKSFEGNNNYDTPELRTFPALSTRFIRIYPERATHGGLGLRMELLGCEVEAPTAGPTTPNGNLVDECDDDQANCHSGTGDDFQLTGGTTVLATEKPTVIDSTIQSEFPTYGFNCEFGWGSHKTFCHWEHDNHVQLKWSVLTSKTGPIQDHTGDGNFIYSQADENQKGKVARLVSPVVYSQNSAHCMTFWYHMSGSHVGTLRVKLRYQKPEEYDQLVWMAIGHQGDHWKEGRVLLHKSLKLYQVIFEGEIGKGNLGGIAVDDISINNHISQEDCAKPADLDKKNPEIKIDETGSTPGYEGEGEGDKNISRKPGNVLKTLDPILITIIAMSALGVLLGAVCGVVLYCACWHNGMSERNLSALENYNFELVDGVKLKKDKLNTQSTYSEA
[1] abbreviates: AlphaScreen, run 1, individual panel run IC50.
[2] abbreviates: FP, run 1, individual panel run IC50.
Setting [3] is: FP, run 2, individual panel run IC50.

As for `CC(CN1CCOCC1)OC(=O)c1ccc2c(c1)OCCO2` (stereo not given), the IC50 was > 100 µM (inactive) (AlphaScreen, mean of runs); more than 100 µM under setting [1]; > 95 µM (inactive) (FP, mean of runs); more than 95 µM under setting [2]; more than 95 µM under setting [3].
As to `O=C(Cn1ccc(NC(=O)OCc2ccccc2)nc1=O)NCCCn1ccnc1`, the IC50 was > 100 µM (inactive) (AlphaScreen, mean of runs); more than 100 µM under setting [1]; > 95 µM (inactive) (FP, mean of runs); more than 95 µM under setting [2]; more than 95 µM under setting [3].
On to `O=C(NCc1ccccc1)c1ccc(N2CCC3(CC2)CC(c2ccc(Cl)cc2)=NO3)c([N+](=O)[O-])c1`, for which the IC50 entry (AlphaScreen, mean of runs) was “inactive”. In addition, the IC50 runs as follows: under setting [1], 22 µM; (FP, mean of runs) > 95 µM (inactive); under setting [2], more than 95 µM; under setting [3], more than 95 µM.
As for `CCC1C2Cc3ccc(O)cc3C1(CC)CCN2C` (stereo not given), the IC50 reads like this: (AlphaScreen, mean of runs) > 100 µM (inactive); under setting [1], more than 100 µM; (FP, mean of runs) > 95 µM (inactive); under setting [2], more than 95 µM; under setting [3], more than 95 µM.
Regarding `O=C(O)c1ccccc1CSc1ccccn1`, the IC50 is 16.5 µM (AlphaScreen, mean of runs); 16.5 µM under setting [1]; > 95 µM (inactive) (FP, mean of runs); more than 95 µM under setting [2]; more than 95 µM under setting [3].
Regarding `COc1ccc(Cl)cc1NC(=O)C(C)N1CCc2ccccc21` (stereo not given), the IC50 result reads like this: (AlphaScreen, mean of runs) “inactive”; (FP, mean of runs) “inactive”. The IC50 is, setting by setting: under setting [1], 45.6 µM; under setting [2], 50 µM; under setting [3], 30.3 µM.
With `CCCCCc1c(-c2cccc(Cl)c2)ncn1CCc1ccccc1OC`, the IC50 runs as follows: (AlphaScreen, mean of runs) > 100 µM (inactive); under setting [1], more than 100 µM; (FP, mean of runs) > 95 µM (inactive); under setting [2], more than 95 µM; under setting [3], more than 95 µM.
As for `CN(Cc1ccccc1)C(=O)c1nc[nH]c1C(=O)N1CCN(C(=O)OC(C)(C)C)CC1`, the IC50 by setting is: (AlphaScreen, mean of runs) > 100 µM (inactive); under setting [1], more than 100 µM; (FP, mean of runs) > 95 µM (inactive); under setting [2], more than 95 µM; under setting [3], more than 95 µM.
For the molecule `CCCNC(=S)Nc1cccc(C(F)(F)F)c1`, the IC50 reads like this: (AlphaScreen, mean of runs) > 100 µM (inactive); under setting [1], more than 100 µM; (FP, mean of runs) > 95 µM (inactive); under setting [2], more than 95 µM; under setting [3], more than 95 µM.
On to `Nc1cc(S(=O)(=O)O)cc([N+](=O)[O-])c1O`, for which the concentration for half-maximal inhibition (IC50) is, setting by setting: (AlphaScreen, mean of runs) 4.28 µM; under setting [1], 4.28 µM; (FP, mean of runs) > 95 µM (inactive); under setting [2], more than 95 µM; under setting [3], more than 95 µM.
For `COc1ccc(-c2csc(NC(CO)c3nc4ccccc4n3CCCO)n2)cc1` (stereo not given), the IC50 by setting is: (AlphaScreen, mean of runs) > 100 µM (inactive); under setting [1], more than 100 µM; (FP, mean of runs) > 95 µM (inactive); under setting [2], more than 95 µM; under setting [3], more than 95 µM.
In the case of `CCC(=O)Nc1cc2c3c(c1)CCC(=O)N3CCC2`, the IC50 by setting is: (AlphaScreen, mean of runs) 13.8 µM; under setting [1], 13.8 µM; (FP, mean of runs) > 95 µM (inactive); under setting [2], more than 95 µM; under setting [3], more than 95 µM.
For `CC(C)(C)C(=O)c1cnc(Nc2ccccc2)s1`, the IC50 was > 100 µM (inactive) (AlphaScreen, mean of runs); more than 100 µM under setting [1]; > 95 µM (inactive) (FP, mean of runs); more than 95 µM under setting [2]; more than 95 µM under setting [3].
In the case of `O=C(CSc1nc2ccccc2n1Cc1ccccc1Cl)N/N=C/c1ccccc1C(=O)O`, the IC50 result (AlphaScreen, mean of runs) was “inactive”. Also, the IC50 reads like this: under setting [1], 39.2 µM; (FP, mean of runs) > 95 µM (inactive); under setting [2], more than 95 µM; under setting [3], more than 95 µM.
Regarding `COc1ccccc1C(=O)NC(=O)CSc1nncn1C`, the IC50 by setting is: (AlphaScreen, mean of runs) > 100 µM (inactive); under setting [1], more than 100 µM; (FP, mean of runs) > 95 µM (inactive); under setting [2], more than 95 µM; under setting [3], more than 95 µM.
Take `CCc1onc(C)c1C(=O)Nc1cc(C)ccc1OC`: the IC50 was 16 µM (AlphaScreen, mean of runs); 16 µM under setting [1]; > 95 µM (inactive) (FP, mean of runs); more than 95 µM under setting [2]; more than 95 µM under setting [3].
Turning to `COc1ccc(CCNC(=O)c2c(O)c3cccc4c3n(c2=O)CC4)cc1OC`, the IC50 was > 100 µM (inactive) (AlphaScreen, mean of runs); more than 100 µM under setting [1]; > 95 µM (inactive) (FP, mean of runs); more than 95 µM under setting [2]; more than 95 µM under setting [3].
In the case of `C[C@@H]1CC=C[C@H]2[C@H]1C(=O)N(Cc1ccccc1)[C@H]2c1ccc(/C=C/c2ccccc2)cc1F`, the IC50 reads like this: (AlphaScreen, mean of runs) > 100 µM (inactive); under setting [1], more than 100 µM; (FP, mean of runs) > 95 µM (inactive); under setting [2], more than 95 µM; under setting [3], more than 95 µM.
For the molecule `CCCN=C1N/C(=C\c2ccco2)C(=O)N1c1ccccc1`, the IC50 by setting is: (AlphaScreen, mean of runs) > 100 µM (inactive); under setting [1], more than 100 µM; (FP, mean of runs) > 95 µM (inactive); under setting [2], more than 95 µM; under setting [3], more than 95 µM.
As for `Cc1nnc(NC(=O)c2ccccc2C(=O)O)s1`, the IC50 was 16.6 µM (AlphaScreen, mean of runs); 16.6 µM under setting [1]; > 95 µM (inactive) (FP, mean of runs); more than 95 µM under setting [2]; more than 95 µM under setting [3].
Regarding `CCOc1ccccc1N1CCN(C(=O)c2ccncc2)CC1`, the IC50 was > 100 µM (inactive) (AlphaScreen, mean of runs); more than 100 µM under setting [1]; > 95 µM (inactive) (FP, mean of runs); more than 95 µM under setting [2]; more than 95 µM under setting [3].
With `COc1cccc(N2[C@@H](CC(C)=O)c3ccc(/C=C/C(C)=O)cc3S2(=O)=O)c1`, the IC50 was > 100 µM (inactive) (AlphaScreen, mean of runs); more than 100 µM under setting [1]; > 95 µM (inactive) (FP, mean of runs); more than 95 µM under setting [2]; more than 95 µM under setting [3].
For `O=C(O)c1ccccc1SCC(=O)N1CCCCC1`, the IC50 by setting is: (AlphaScreen, mean of runs) > 100 µM (inactive); under setting [1], more than 100 µM; (FP, mean of runs) > 95 µM (inactive); under setting [2], more than 95 µM; under setting [3], more than 95 µM.
Turning to `COC(=O)CCCC1=CC2=CC(=O)C(C)(OC(=O)c3cccs3)C(=O)C2=CN1CCCCO` (stereo not given), the IC50 reads like this: (AlphaScreen, mean of runs) > 100 µM (inactive); under setting [1], more than 100 µM; (FP, mean of runs) > 95 µM (inactive); under setting [2], more than 95 µM; under setting [3], more than 95 µM.
Turning to `CN1CCC(=NNC(=O)c2ccco2)CC1`, the IC50 is, setting by setting: (AlphaScreen, mean of runs) > 100 µM (inactive); under setting [1], more than 100 µM; (FP, mean of runs) > 95 µM (inactive); under setting [2], more than 95 µM; under setting [3], more than 95 µM.
`CCOc1ccc(S(=O)(=O)N2CCN(C(=O)c3sccc3C)CC2)cc1`: the IC50 is 14.5 µM (AlphaScreen, mean of runs); 14.5 µM under setting [1]; > 95 µM (inactive) (FP, mean of runs); more than 95 µM under setting [2]; more than 95 µM under setting [3].
Consider `O=C(CSC1CN(C(c2ccccc2)c2ccccc2)C1)N/N=C/c1ccccc1`, for which the IC50 was 5.56 µM (AlphaScreen, mean of runs); 5.56 µM under setting [1]; > 95 µM (inactive) (FP, mean of runs); more than 95 µM under setting [2]; more than 95 µM under setting [3].
For `Cc1nnc(SC(C)C(=O)Nc2ccc(S(=O)(=O)NC3CCCCC3)cc2)s1` (stereo not given), the IC50 is, setting by setting: (AlphaScreen, mean of runs) > 100 µM (inactive); under setting [1], more than 100 µM; (FP, mean of runs) > 95 µM (inactive); under setting [2], more than 95 µM; under setting [3], more than 95 µM.
As to `O=C(O)C1CCN(C(=O)c2ccc(Cl)cc2)CC1`, the IC50 is > 100 µM (inactive) (AlphaScreen, mean of runs); more than 100 µM under setting [1]; > 95 µM (inactive) (FP, mean of runs); more than 95 µM under setting [2]; more than 95 µM under setting [3].
As for `COc1ccc(C2CC(O)(c3ccccc3)Oc3cc(OC)ccc32)cc1` (stereo not given), the IC50 is > 100 µM (inactive) (AlphaScreen, mean of runs); more than 100 µM under setting [1]; > 95 µM (inactive) (FP, mean of runs); more than 95 µM under setting [2]; more than 95 µM under setting [3].
For the molecule `CSCCC(NC(=O)c1ccc(Cl)cc1Cl)C(=O)NCC(c1cccs1)N(C)C` (stereo not given), the IC50 runs as follows: (AlphaScreen, mean of runs) > 100 µM (inactive); under setting [1], more than 100 µM; (FP, mean of runs) > 95 µM (inactive); under setting [2], more than 95 µM; under setting [3], more than 95 µM.
As to `CCOC(=O)C1=C(O)C(=O)N(c2ccccc2)C1c1cccc([N+](=O)[O-])c1` (stereo not given), the IC50 reads like this: (AlphaScreen, mean of runs) > 100 µM (inactive); under setting [1], more than 100 µM; (FP, mean of runs) > 95 µM (inactive); under setting [2], more than 95 µM; under setting [3], more than 95 µM.
For the molecule `COc1ccc(NC(=O)CN2CCN(c3c(C)cc(C)cc3C)CC2)cc1`, the IC50 (AlphaScreen, mean of runs) was > 100 µM (inactive); the IC50 under setting [1] is more than 100 µM; the IC50 (FP, mean of runs) is > 95 µM (inactive); the IC50 under setting [2] was more than 95 µM; the IC50 under setting [3] is more than 95 µM.
With `COc1ccc(/C=N/NC(=O)c2cc(C(C)(C)C)[nH]n2)cc1COc1ccc(F)cc1F`, the IC50 is, setting by setting: (AlphaScreen, mean of runs) > 100 µM (inactive); under setting [1], more than 100 µM; (FP, mean of runs) > 95 µM (inactive); under setting [2], more than 95 µM; under setting [3], more than 95 µM.
`CC(=O)Nc1ccc(Oc2cc(C#N)c(C#N)cc2N2CCOCC2)cc1`: the IC50 (AlphaScreen, mean of runs) was > 100 µM (inactive); the IC50 under setting [1] is more than 100 µM; the IC50 (FP, mean of runs) is > 95 µM (inactive); the IC50 under setting [2] is more than 95 µM; the IC50 under setting [3] was more than 95 µM.
